Experimental data: ChEMBL document CHEMBL3885881, “DrugMatrix”

Species on record: Rattus norvegicus
Test: DrugMatrix - Regimen: Daily Repeat
Assay type: toxicity, organism-based, Sprague-Dawley
Set-up: regimen Daily Repeat, gender Male, age 6-8 weeks
Details: in vivo, po, route oral GAVAGE, vehicle 100 % WATER; for ABSOLUTE BASOPHIL / ABSOLUTE EOSINOPHIL / ABSOLUTE LYMPHOCYTE / ABSOLUTE MONOCYTE / ABSOLUTE SEGMENTED NEUTROPHIL / BASOPHIL / EOSINOPHIL / ERYTHROCYTE COUNT / HEMATOCRIT / HEMOGLOBIN / LEUKOCYTE COUNT / LYMPHOCYTE / MEAN CORPUSCULAR HEMOGLOBIN / MEAN CORPUSCULAR HEMOGLOBIN CONCENTRATION / MEAN CORPUSCULAR VOLUME / MONOCYTE / NEUTROPHIL / NUCLEATED RED BLOOD CELLS / PLATELET COUNT: tissue Blood; for ALANINE AMINOTRANSFERASE / ALBUMIN / ALKALINE PHOSPHATASE / ASPARTATE AMINOTRANSFERASE / BLOOD UREA NITROGEN / CARBON DIOXIDE / CHLORIDE / CHOLESTEROL / CREATINE PHOSPHOKINASE / CREATININE / GLUCOSE / LACTATE DEHYDROGENASE / LIPASE / PHOSPHORUS / POTASSIUM / SODIUM / TOTAL BILIRUBIN / TOTAL PROTEIN / URIC ACID: tissue Plasma
[1] = 110 mg/kg, 72 h, dose level Low, time 3 day
[2] = 110 mg/kg, 120 h, dose level Low, time 5 day
[3] = 400 mg/kg, 72 h, dose level High, time 3 day
[4] = 400 mg/kg, 120 h, dose level High, time 5 day

## CCOC(=O)n1ccn(C)c1=S [CARBIMAZOLE]
[1]
  ABSOLUTE BASOPHIL: 0 CELLS/uL
  ABSOLUTE EOSINOPHIL: 15.67 CELLS/uL
  ABSOLUTE LYMPHOCYTE: 5022.67 CELLS/uL
  ABSOLUTE MONOCYTE: 37.33 CELLS/uL
  ABSOLUTE SEGMENTED NEUTROPHIL: 357.67 CELLS/uL
  BASOPHIL: 0%
  EOSINOPHIL: 0.33%
  ERYTHROCYTE COUNT: 5.37 x10E6/uL
  HEMATOCRIT: 33.5%
  HEMOGLOBIN: 13.37 G/DL
  LEUKOCYTE COUNT: 5.43 x10E3/uL
  LYMPHOCYTE: 92%
  MEAN CORPUSCULAR HEMOGLOBIN: 24.9 pg
  MEAN CORPUSCULAR HEMOGLOBIN CONCENTRATION: 39.9 G/DL
  MEAN CORPUSCULAR VOLUME: 62.43 fL
  MONOCYTE: 0.67%
  NEUTROPHIL: 7%
  NUCLEATED RED BLOOD CELLS: 0 /100WBC
  PLATELET COUNT: 1166.67 x10E3/uL
  ALANINE AMINOTRANSFERASE: 39.33 u/L
  ALBUMIN: 4.23 G/DL
  ALKALINE PHOSPHATASE: 314 u/L
  ASPARTATE AMINOTRANSFERASE: 65.33 u/L
  BLOOD UREA NITROGEN: 19.33 mg/dL
  CARBON DIOXIDE: 29.33 mmol/L
  CHLORIDE: 102 MEQ/L
  CHOLESTEROL: 81.67 mg/dL
  CREATINE PHOSPHOKINASE: 137 u/L
  CREATININE: 0.2 mg/dL
  GLUCOSE: 129.33 mg/dL
  LACTATE DEHYDROGENASE: 155 u/L
  LIPASE: 9.33 u/L
  PHOSPHORUS: 10.27 mg/dL
  POTASSIUM: 6.06 MEQ/L
  SODIUM: 147.63 MEQ/L
  TOTAL BILIRUBIN: 0.2 mg/dL
  TOTAL PROTEIN: 6 G/DL
  URIC ACID: 0.7 mg/dL
[2]
  ABSOLUTE BASOPHIL: 0 CELLS/uL
  ABSOLUTE EOSINOPHIL: 0 CELLS/uL
  ABSOLUTE LYMPHOCYTE: 14370.67 CELLS/uL
  ABSOLUTE MONOCYTE: 96 CELLS/uL
  ABSOLUTE SEGMENTED NEUTROPHIL: 766.67 CELLS/uL
  BASOPHIL: 0%
  EOSINOPHIL: 0%
  ERYTHROCYTE COUNT: 6.23 x10E6/uL
  HEMATOCRIT: 38.1%
  HEMOGLOBIN: 14.73 G/DL
  LEUKOCYTE COUNT: 15.23 x10E3/uL
  LYMPHOCYTE: 94%
  MEAN CORPUSCULAR HEMOGLOBIN: 23.67 pg
  MEAN CORPUSCULAR HEMOGLOBIN CONCENTRATION: 38.73 G/DL
  MEAN CORPUSCULAR VOLUME: 61.13 fL
  MONOCYTE: 0.67%
  NEUTROPHIL: 5.33%
  NUCLEATED RED BLOOD CELLS: 0 /100WBC
  PLATELET COUNT: 998 x10E3/uL
  ALANINE AMINOTRANSFERASE: 56.67 u/L
  ALBUMIN: 4.53 G/DL
  ALKALINE PHOSPHATASE: 416.67 u/L
  ASPARTATE AMINOTRANSFERASE: 76.67 u/L
  BLOOD UREA NITROGEN: 19 mg/dL
  CARBON DIOXIDE: 23.33 mmol/L
  CHLORIDE: 103 MEQ/L
  CHOLESTEROL: 83 mg/dL
  CREATINE PHOSPHOKINASE: 286 u/L
  CREATININE: 0.2 mg/dL
  GLUCOSE: 154 mg/dL
  LACTATE DEHYDROGENASE: 175.67 u/L
  LIPASE: 9.67 u/L
  PHOSPHORUS: 12.53 mg/dL
  POTASSIUM: 6.34 MEQ/L
  SODIUM: 148.13 MEQ/L
  TOTAL BILIRUBIN: 0.2 mg/dL
  TOTAL PROTEIN: 6.87 G/DL
  URIC ACID: 1.97 mg/dL
[3]
  ABSOLUTE BASOPHIL: 0 CELLS/uL
  ABSOLUTE EOSINOPHIL: 0 CELLS/uL
  ABSOLUTE LYMPHOCYTE: 9627.33 CELLS/uL
  ABSOLUTE MONOCYTE: 0 CELLS/uL
  ABSOLUTE SEGMENTED NEUTROPHIL: 872.67 CELLS/uL
  BASOPHIL: 0%
  EOSINOPHIL: 0%
  ERYTHROCYTE COUNT: 5.66 x10E6/uL
  HEMATOCRIT: 35.3%
  HEMOGLOBIN: 14.1 G/DL
  LEUKOCYTE COUNT: 10.5 x10E3/uL
  LYMPHOCYTE: 91.67%
  MEAN CORPUSCULAR HEMOGLOBIN: 24.9 pg
  MEAN CORPUSCULAR HEMOGLOBIN CONCENTRATION: 40.03 G/DL
  MEAN CORPUSCULAR VOLUME: 62.3 fL
  MONOCYTE: 0%
  NEUTROPHIL: 8.33%
  NUCLEATED RED BLOOD CELLS: 0 /100WBC
  PLATELET COUNT: 1182.33 x10E3/uL
  ALANINE AMINOTRANSFERASE: 38.33 u/L
  ALBUMIN: 4.2 G/DL
  ALKALINE PHOSPHATASE: 421 u/L
  ASPARTATE AMINOTRANSFERASE: 56 u/L
  BLOOD UREA NITROGEN: 12.67 mg/dL
  CARBON DIOXIDE: 25.67 mmol/L
  CHLORIDE: 101.67 MEQ/L
  CHOLESTEROL: 82 mg/dL
  CREATINE PHOSPHOKINASE: 338 u/L
  CREATININE: 0.17 mg/dL
  GLUCOSE: 149 mg/dL
  LACTATE DEHYDROGENASE: 171 u/L
  LIPASE: 9.67 u/L
  PHOSPHORUS: 11.57 mg/dL
  POTASSIUM: 6.88 MEQ/L
  SODIUM: 143.1 MEQ/L
  TOTAL BILIRUBIN: 0.2 mg/dL
  TOTAL PROTEIN: 5.97 G/DL
  URIC ACID: 1.73 mg/dL
[4]
  ABSOLUTE BASOPHIL: 0 CELLS/uL
  ABSOLUTE EOSINOPHIL: 0 CELLS/uL
  ABSOLUTE LYMPHOCYTE: 9558.67 CELLS/uL
  ABSOLUTE MONOCYTE: 45.33 CELLS/uL
  ABSOLUTE SEGMENTED NEUTROPHIL: 1996 CELLS/uL
  BASOPHIL: 0%
  EOSINOPHIL: 0%
  ERYTHROCYTE COUNT: 5.99 x10E6/uL
  HEMATOCRIT: 37.23%
  HEMOGLOBIN: 15.17 G/DL
  LEUKOCYTE COUNT: 11.6 x10E3/uL
  LYMPHOCYTE: 82.33%
  MEAN CORPUSCULAR HEMOGLOBIN: 25.33 pg
  MEAN CORPUSCULAR HEMOGLOBIN CONCENTRATION: 40.73 G/DL
  MEAN CORPUSCULAR VOLUME: 62.13 fL
  MONOCYTE: 0.33%
  NEUTROPHIL: 17.33%
  NUCLEATED RED BLOOD CELLS: 0 /100WBC
  PLATELET COUNT: 1416 x10E3/uL
  ALANINE AMINOTRANSFERASE: 37.33 u/L
  ALBUMIN: 3.73 G/DL
  ALKALINE PHOSPHATASE: 235 u/L
  ASPARTATE AMINOTRANSFERASE: 30.33 u/L
  BLOOD UREA NITROGEN: 19 mg/dL
  CARBON DIOXIDE: 20.67 mmol/L
  CHLORIDE: 105.33 MEQ/L
  CHOLESTEROL: 80 mg/dL
  CREATINE PHOSPHOKINASE: 198 u/L
  CREATININE: 0.16 mg/dL
  GLUCOSE: 124.67 mg/dL
  LACTATE DEHYDROGENASE: 434.67 u/L
  LIPASE: 9.33 u/L
  PHOSPHORUS: 11.57 mg/dL
  POTASSIUM: 6.35 MEQ/L
  SODIUM: 144.43 MEQ/L
  TOTAL BILIRUBIN: 0.17 mg/dL
  TOTAL PROTEIN: 5.8 G/DL
  URIC ACID: 1.57 mg/dL
